Measured values as given in paper PMC12040169 (PLOS Biology, 2025).
Where “and” joins values, the source holds several entries; their conditions need not be identical. Equal entries are not always repeated.

Legend:
[1] = in vitro; conditions: human, hela cells, % viability
[2] = tested on: HeLa; conditions: bulk resorufin, single well, 28.5 h, 10 µM, Bulk resorufin fluorescence

Row | Structure (SMILES) | viability at 28.5 h, 10 µM [1] [%] | % viability [2]
1 | COCCn1c(S)nc(=O)c2cc(C)cnc21 [CBK288520] | 88 | 92.2%
2 | CC(C)c1n[nH]c2c1/C(=N\N)c1ccccc1-2 [CBK017384] | 85.4 | 73.8%
3 | O=C(NCCc1ccccc1)[C@H]1C=CCN1C(=O)c1ccc(F)cc1 [CBK282383] | 89.4 | 96.3% and 92.6%
4 | COc1cccc(NC(=O)c2sc3ncn(C)c(=O)c3c2C)c1 [CBK071807] | 99.2 | 82.5%
5 | CC(C)(C)OC(=O)N1CCC[C@@H](CNC(=O)c2cccs2)C1 [CBK284332] | 104 | 90.2%
6 | O=C(O)CCNc1c(C(=O)O)cnc2ccccc12 [CBK261139] | 83.3 | 89%
7 | CC(C)[C@@H](Cn1c(=O)oc2ccccc21)NC(=O)c1ccco1 [CBK284531] | 94.1 | 86.1%
8 | CCOc1ccc(CN2CC3CCCN3C[C@H]2C)cc1 (some centres unmarked) [CBK285422] | 87.8 | 100%
9 | O=c1cc(CSc2ccccn2)[nH]c2[nH]n(-c3ccccc3)c(=O)c12 [CBK269895] | 92.7 | 109%
10 | C=CCn1cc(CN2C[C@@H]3CCCN3C[C@H]2CCSC)c(C)n1 [CBK285420] | 87.6 | 106%
11 | CCOc1ccc(CCN2C(=O)CN=C2S)cc1OCC [CBK288528] | 103 | 98.3%
12 | CC(C)[C@H](Cn1nc(C2CC2)ccc1=O)NC(=O)C1CCC1 [CBK282367] | 85.1 | 91.4%
13 | COCCn1c(C)cc(CN2CC3CCCN3C[C@@H]2C)c1C (some centres unmarked) [CBK285421] | 83.8 | 101%
14 | COc1nccnc1OC1CCNCC1 [CBK073919T] | 100 | 86.5% and 97.3%
15 | Cc1ccc(-c2csc3c(=O)[nH]c(N4CCC5(CC4)OCCO5)nc23)cc1 [CBK288034] | 83.9 | 92.2%
16 | O=C(Cn1c([C@H]2CCCO2)cc2cccnc21)NC1CC1 [CBK282274] | 94.8 | 102%
17 | C/C(=N\O)c1cc2cc(Cl)cc(Cl)c2oc1=O [CBK288516] | 84.5 | 90.6%
18 | O=C(NCCc1ccccc1)[C@@H]1C=CCN1C(=O)c1ccco1 [CBK284316] | 93 | 90%
19 | O=C(CN1C(=O)[C@@H]2CCCN2C(=O)c2ccccc21)N1CCOCC1 [CBK286401] | 83.9 | 103%
20 | Nc1c(-c2cccc3cccnc23)cnc2ncccc12 [CBK083682] | 108 | 88.7%
21 | C[C@H](Cn1c(=O)oc2ccccc21)NC(=O)c1cccs1 [CBK284532] | 85 | 90.7%
22 | C[C@@H](Cn1nnc2ccccc21)NC(=O)c1ccco1 [CBK284319] | 75.9 | 86.3%
23 | Cc1nnc(SCC(=O)Nc2ccc(CN3CCOCC3)cc2)s1 [CBK269849] | 96.4 | 112%
24 | CC[C@H](Cn1ncc2ccccc2c1=O)NC(=O)c1ccco1 [CBK284300] | 78.6 | 86.8%
25 | C[C@H](Cn1nc2c(cc1=O)CCCCC2)NC(=O)c1cccs1 [CBK284545] | 101 | 85.9%

Row | Structure (SMILES) | viability at 28.5 h, 10 µM [1] [%] | % viability [2]
26 | S=c1[nH]nc(-c2sc3ccccc3c2Cl)[nH]1 [CBK013698] | 96.3 | 90.2%
27 | CC1(C)CC(NC(=O)/C=C/C(=O)O)CC(C)(C)N1 [CBK262018] | 88.4 | 90.9%
28 | Clc1ccc(COc2cncc(OC3CCN(CCN4CCOCC4)C3)n2)cc1Cl (centres unmarked) [CBK084433] | 87 | 100%
29 | CC(C)(C)NC(=O)CN1C(=O)[C@H]2CCCN2C(=O)c2ccccc21 [CBK282428] | 89.5 | 107%
30 | C[C@@H]1CN2C[C@H](O)CC2CN1Cc1ccccc1C(F)(F)F (some centres unmarked) [CBK284556] | 80.7 | 100%
31 | O=C(Cn1c([C@H]2CCCO2)cc2cccnc21)NC1CCCC1 [CBK285219] | 88.8 | 85.4%
32 | O=C(O)C(Cc1ccc(O)cc1)N1C(=O)c2ccccc2C1=O (centres unmarked) [CBK262479] | 84.1 | 80.4%
33 | O=C(O)/C=C\C(=O)Nc1ccccc1C#Cc1ccccc1 [CBK261680] | 82.9 | 83.2%
34 | C[C@H](Cn1c(C(F)(F)F)cc2cccnc21)NC(=O)C1CC1 [CBK283227] | 93.7 | 89.4%
35 | O=C(O)CCS(=O)(=O)c1cccc2cccnc12 [CBK131911] | 102 | 92.5%
36 | O=C(NCCc1ccccc1)[C@@H]1C=CCN1C(=O)C1CC1 [CBK284315] | 93.6 | 81.8%
37 | Cc1cc(CN2CC3CCCN3C[C@H]2C)oc1C (some centres unmarked) [CBK285449] | 96.9 | 103%
38 | CC(C)(C)OC(=O)N1CCC[C@H]([C@H](O)c2ccc(F)cc2)C1 [CBK284298] | 92.3 | 80.1%
39 | C[C@@H]1CN2CCCC2CN1CC1=Cc2ccccc2OC1 (some centres unmarked) [CBK284552] | 88.6 | 103%
40 | Cn1c(=O)c2c(-c3ccccc3)n(-c3ccc(C(=O)O)cc3)cc2n(C)c1=O [CBK265040] | 84 | 98.4%
41 | CC[C@@H](Cn1nc(-c2ccc(F)c(F)c2)ccc1=O)NC(=O)C1CC1 [CBK282313] | 90.6 | 89.3%
42 | O=C(O)c1cc(-c2ccccc2)c2c(=O)[nH][nH]c2n1 [CBK286631] | 105 | 102% and 88.2%
43 | NS(=O)(=O)c1ccc2nc(NC(=O)c3ccc(Cl)s3)sc2c1 [CBK287320] | 108 | 89.6%
44 | O=C1[C@@H]2CCCN2C(=O)c2ccccc2N1Cc1ccccc1F [CBK282855] | 93.9 | 106%
45 | CNC1=NC2CCCCC2O1 (centres unmarked) [CBK023075F] | 117 | 111%
46 | CCOC(=O)N1CCC(NS(=O)(=O)c2ccc(Oc3ccccc3)cc2)CC1 [CBK045469] | 98.4 | 97.7%
47 | O=C(CN1C(=O)[C@H]2CCCN2C(=O)c2ccccc21)NC1CCCC1 [CBK282438] | 112 | 110%
48 | O=C(NC1CC1)[C@H]1C=CCN1S(=O)(=O)c1cccc(F)c1 [CBK285485] | 111 | 98.9%
49 | COc1ccc(C(NC(=O)Cc2cn3ccsc3n2)C2CC(O)C2)cn1 (centres unmarked) [CBK306910] | 82.2 | 97%
50 | COc1ccccc1N1C(=O)CC(=O)N=C1S [CBK288517] | 89.5 | 89.3%

Row | Structure (SMILES) | viability at 28.5 h, 10 µM [1] [%] | % viability [2]
51 | Clc1ccc(COc2ccnc(N3CCCN(CCN4CCOCC4)CC3)n2)cc1Cl [CBK083957] | 97.8 | 98.9%
52 | CC(=O)NC[C@H]1CN(c2ccc(-c3cc4ccccc4n3C(=O)OC(C)(C)C)c(F)c2)C(=O)O1 [CBK011849] | 98.1 | 82.6%
53 | C[C@@H]1CN2CCCC2CN1Cc1cc(F)cc(F)c1 (some centres unmarked) [CBK285405] | 96.1 | 105%
54 | Cc1c(S(=O)(=O)NCCN2CCNC2=O)cnn1-c1ccccc1 [CBK062603] | 117 | 99.3%
55 | CC(C)n1cc(CN2CC3C[C@@H](O)CN3C[C@H]2C)c2ccccc21 (some centres unmarked) [CBK285437] | 107 | 88.8%
56 | COc1cc(-c2ccc(OC3CCNCC3)cc2)cc(OC)c1OC [CBK093682] | 99 | 102%
57 | CC(=O)n1cc(C2C(=O)NN=C2C)c2ccccc21 (centres unmarked) [CBK083563] | 102 | 82.3%
58 | CCOc1ccsc1C(=O)NCc1ccc(OC2CCNCC2)cc1 [CBK036355T] | 106 | 114%
59 | CCN(CC)CCNC(=O)/C(=N\O)c1ccccn1 [CBK264538] | 90.6 | 93.9%
60 | C[C@H]1CN2C[C@H](O)CC2CN1Cc1cc(Br)cs1 (some centres unmarked) [CBK285044] | 103 | 94%
61 | CCS(=O)(=O)N1CC=C[C@H]1C(=O)NCCc1ccccc1 [CBK284325] | 107 | 89.7%
62 | COc1ccc2[nH]cc(CCNC(=O)Cc3c[nH]c4ccc(O)cc34)c2c1 [CBK116216] | 98.6 | 84.5%
63 | CC[C@H](Cn1ncc2ccccc2c1=O)NC(=O)C1CCCC1 [CBK284302] | 94.2 | 102%
64 | O=C(O)CCS(=O)(=O)c1nc(-c2ccccc2)cc(C(F)(F)F)n1 [CBK268832] | 104 | 102%
65 | CS(=O)(=O)Nc1ccc2[nH]c(=O)c(C(=O)NCc3ccc(Cl)cc3)cc2c1 [CBK017560] | 97.9 | 102%
66 | O=[N+]([O-])c1c(-c2cn[nH]c2)n[nH]c1-c1cn[nH]c1 [CBK008388] | 86.2 | 93.4%
67 | CC(C)c1ccc(CN2CCC(Cc3ccccc3)CC2)cc1 [CBK126378] | 99.1 | 109%
68 | COc1ccc(C(CC(=O)O)NC(=O)c2ccccc2)cc1 (centres unmarked) [CBK261121] | 89.3 | 93.9%
69 | CCCc1[nH]nc(O)c1CCc1ccc(Cl)cc1Cl [CBK075082] | 106 | 109%
70 | CS(=O)(=O)Nc1cc2cccnc2nc1-c1ccc2c(c1)CCO2 [CBK085690] | 104 | 102%
71 | COc1ccc([C@@]23CC[C@@H](CNS(=O)(=O)c4cccc(Cl)c4)C[C@@H]2N(C)CC3)cc1OC [CBK042202T] | 99.8 | 91.5%
72 | Cc1sc(NC(=O)C(F)(F)F)c(C(N)=O)c1C [CBK027775] | 99.4 | 94.1%
73 | CC(=O)NC(NS(=O)(=O)c1ccccc1)(C(F)(F)F)C(F)(F)F [CBK025820] | 98.4 | 92.5%
